Measured values as given in ChEMBL document CHEMBL5316344, “Homologation of the Alkyl Side Chain of Antimitotic Phenyl 4-(2-Oxo-3-alkylimidazolidin-1-yl)benzenesulfonate Prodrugs Selectively Targeting CYP1A1-Expressing Breast Cancers Improves Their Stability in Rodent Liver Microsomes” (J Med Chem, 2023).
pIC50, pKi: −log10 of the molar value. The source made the active and inactive calls. The calls are words filed in the database; no cut-off is given here.

Columns and labels:
MCF7 [1] = experiment: Antiproliferative activity against human MCF7 cells expressing CYP1A1 assessed as cell growth inhibition incubated for 48 hrs by sulforhodamine B assay; format: functional, cell-based; conditions: MCF7, 48 h
HT-29 = experiment: Antiproliferative activity against human HT-29 cells assessed as cell growth inhibition incubated for 48 hrs by sulforhodamine B assay; format: functional, cell-based; conditions: HT-29, 48 h
M21 = experiment: Antiproliferative activity against human M21 cells assessed as cell growth inhibition incubated for 48 hrs by sulforhodamine B assay; format: functional, cell-based; conditions: M21, 48 h
[2] = Selectivity ratio, ratio of IC50 for antiproliferative activity against human HT-29 cells to IC50 for antiproliferative activity against human MCF7 cells expressing CYP1A1; format: functional
[3] = Selectivity ratio, ratio of IC50 for antiproliferative activity against human M21 cells to IC50 for antiproliferative activity against human MCF7 cells expressing CYP1A1; format: functional
[4] = Stability in human liver microsomes assessed as half life incubated for 60 mins by HPLC analysis; format: ADME, Microsome
[5] = Stability in mouse liver microsomes assessed as half life incubated for 60 mins by HPLC analysis; format: ADME, Microsome
[6] = Stability in rat liver microsomes assessed as half life incubated for 60 mins by HPLC analysis; format: ADME, Microsome
[7] = Stability in human liver microsomes assessed as intrinsic clearance incubated for 60 mins by HPLC analysis; format: ADME, Microsome; conditions: read-out: CLH
[8] = Stability in mouse liver microsomes assessed as intrinsic clearance incubated for 60 mins by HPLC analysis; format: ADME, Microsome; conditions: read-out: CLH
[9] = Stability in rat liver microsomes assessed as intrinsic clearance incubated for 60 mins by HPLC analysis; format: ADME, Microsome; conditions: read-out: CLH
Cytochrome P450 1A1 [10] = biological target: T1, Cytochrome P450 1A1 (Homo sapiens, UniProt P04798); experiment: Binding affinity to human CYP1A1 assessed as inhibition of conversion of 7-ethoicyresorufin into fluorescent resorufin by measuring inhibition constant preincubated for 5 mins followed by […] addition measured every minute for 15 mins by EROD assay; format: ADME
T1 sequence (P04798 whole entry): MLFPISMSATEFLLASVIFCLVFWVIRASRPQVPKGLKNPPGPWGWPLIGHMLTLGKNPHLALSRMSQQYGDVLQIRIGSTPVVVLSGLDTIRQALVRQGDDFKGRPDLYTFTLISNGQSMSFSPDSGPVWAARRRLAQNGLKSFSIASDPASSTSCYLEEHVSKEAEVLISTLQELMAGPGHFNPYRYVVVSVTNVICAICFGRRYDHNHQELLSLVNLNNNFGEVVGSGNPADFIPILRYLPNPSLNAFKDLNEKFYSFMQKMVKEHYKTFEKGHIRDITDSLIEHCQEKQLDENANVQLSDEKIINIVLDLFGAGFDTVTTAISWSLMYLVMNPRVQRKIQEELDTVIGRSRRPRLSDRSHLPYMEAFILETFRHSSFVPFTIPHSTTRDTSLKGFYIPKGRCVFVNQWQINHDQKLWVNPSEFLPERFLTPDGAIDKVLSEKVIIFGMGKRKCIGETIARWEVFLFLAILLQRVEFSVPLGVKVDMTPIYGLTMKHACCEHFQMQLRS

HT-1080 [11] = experiment: Antiproliferative activity against human HT-1080 cells expressing CYP1A1 assessed as cell growth inhibition incubated for 48 hrs by sulforhodamine B assay; format: functional, cell-based; conditions: HT-1080, 48 h
HT-1080 [12] = experiment: Antiproliferative activity against human HT-1080 cells transfected with empty vector assessed as cell growth inhibition incubated for 48 hrs by sulforhodamine B assay; format: functional, cell-based; conditions: HT-1080, 48 h
HT-1080 [13] = experiment: Antiproliferative activity against human HT-1080 cells assessed as cell growth inhibition incubated for 48 hrs by sulforhodamine B assay; format: functional, cell-based; conditions: HT-1080, 48 h
[14] = Selectivity ratio, ratio of IC50 for antiproliferative activity against human HT-1080 cells transfected with empty vector to IC50 for antiproliferative activity against human HT-1080 cells expressing CYP1A1; format: functional
[15] = Selectivity ratio, ratio of IC50 for antiproliferative activity against human HT-1080 cells to IC50 for antiproliferative activity against human HT-1080 cells expressing CYP1A1; format: functional
MDA-MB-231 = experiment: Antiproliferative activity against ER/PR/HER2-negative human MDA-MB-231 cells assessed as cell growth inhibition incubated for 72 hrs by sulforhodamine B assay; format: functional, cell-based; conditions: MDA-MB-231, 72 h
MDA-MB-468 = experiment: Antiproliferative activity against ER/PR/HER2-negative human MDA-MB-468 cells assessed as cell growth inhibition incubated for 72 hrs by sulforhodamine B assay; format: functional, cell-based; conditions: MDA-MB-468, 72 h
T47D = experiment: Antiproliferative activity against ER/PR-positive HER2-negative human T47D cells assessed as cell growth inhibition incubated for 72 hrs by sulforhodamine B assay; format: functional, cell-based
SK-BR-3 = experiment: Antiproliferative activity against ER/PR-negative HER2-positive human SK-BR-3 cells assessed as cell growth inhibition incubated for 72 hrs by sulforhodamine B assay; format: functional, cell-based; conditions: SK-BR-3, 72 h
MCF7 [16] = experiment: Antiproliferative activity against […] human MCF7 cells assessed as cell growth inhibition incubated for 72 hrs by sulforhodamine B assay; format: functional, cell-based; conditions: MCF7, 72 h
[17] = Selectivity ratio, ratio of IC50 for antiproliferative activity against ER/PR/HER2-negative human MDA-MB-231 cells to IC50 for antiproliferative activity against ER/PR/HER2-negative human MDA-MB-468 cells; format: functional
[18] = Selectivity ratio, ratio of IC50 for antiproliferative activity against ER/PR/HER2-negative human MDA-MB-231 cells to IC50 for antiproliferative activity against ER/PR-positive HER2-negative human T47D cells; format: functional
[19] = Selectivity ratio, ratio of IC50 for antiproliferative activity against ER/PR/HER2-negative human MDA-MB-231 cells to IC50 for antiproliferative activity against ER/PR-negative HER2-positive human SK-BR-3 cells; format: functional
[20] = Selectivity ratio, ratio of IC50 for antiproliferative activity against ER/PR/HER2-negative human MDA-MB-231 cells to IC50 for antiproliferative activity against […] human MCF7 cells; format: functional
MCF7 [21] = experiment: Induction of cell cycle arrest in human MCF7 cells expressing CYP1A1 assessed as accumulation of cells at G2/M phase at 50 nM incubated for 48 hrs by DAPI staining based flow cytometric analysis (reference value: 16+/-2 %); format: functional
MCF7 [22] = experiment: Induction of cell cycle arrest in human MCF7 cells expressing CYP1A1 assessed as accumulation of cells at S phase at 50 nM incubated for 48 hrs by DAPI staining based flow cytometric analysis (reference value: 11+/-1 %); format: functional
MCF7 [23] = experiment: Induction of cell cycle arrest in human MCF7 cells expressing CYP1A1 assessed as accumulation of cells at G0/G1 phase at 50 nM incubated for 48 hrs by DAPI staining based flow cytometric analysis (reference value: 74+/-2 %); format: functional
Tubulin (Homo sapiens) [24] = biological target: T2, Tubulin (Homo sapiens) (UniProt P68371+Q9H4B7+P0DPH7+P68366+Q13509+Q71U36+P04350+Q3ZCM7+P07437+P68363+Q9BQE3+Q6PEY2+Q13885+Q9BVA1+Q9BUF5); experiment: Disruption of microtubules in human MCF7 cells expressing CYP1A1 assessed as cytoskeleton disruption at 840 nM measured after 48 hrs by DAPI staining based fluorescence microscopic analysis; format: cell-based
HT-1080 [25] = experiment: Antitumor activity against human HT-1080 cells xenografted in chick embryo assessed as reduction in tumor wet weight at 1 ug, iv incubated for 17 days by CAM assay; format: functional; design: scale not given: the % may be the effect or the level left; conditions: dose 1 µg, time 17 day
HT-1080 [26] = experiment: Antitumor activity against human HT-1080 cells transfected with empty vector xenografted in chick embryo assessed as reduction in tumor wet weight at 1 ug, iv incubated for 17 days by CAM assay; format: functional; design: scale not given: the % may be the effect or the level left; conditions: dose 1 µg, time 17 day
HT-1080 [27] = experiment: Antitumor activity against human HT-1080 cells expressing CYP1A1 xenografted in chick embryo assessed as reduction in tumor wet weight at 1 ug, iv incubated for 17 days by CAM assay; format: functional; design: scale not given: the % may be the effect or the level left; conditions: dose 1 µg, time 17 day
[28] = Toxicity in chick embryo xenografted with human […] cells assessed as mortality at 1 ug, iv incubated for 17 days; format: organism-based, Gallus gallus; conditions: chicken, in vivo, 408 h, dose 1 µg, time 17 day
[29] = Toxicity in chick embryo xenografted with human […] cells transfected with empty vector assessed as mortality at 1 ug, iv incubated for 17 days; format: organism-based, Gallus gallus; conditions: chicken, in vivo, 408 h, dose 1 µg, time 17 day
[30] = Toxicity in chick embryo xenografted with human […] cells expressing CYP1A1 assessed as mortality at 1 ug, iv incubated for 17 days; format: organism-based, Gallus gallus; conditions: chicken, in vivo, 408 h, dose 1 µg, time 17 day
Cytochrome P450 1A1 [31] = biological target: T1, Cytochrome P450 1A1; experiment: Prodrug conversion assessed as human CYP1A1-mediated CEU-602 formation incubated for 15 mins in presence of NADPH by HPLC analysis; format: ADME; conditions: recombinant enzyme, 0.25 h
MCF7 [32] = experiment: Induction of cell cycle arrest in human MCF7 cells expressing CYP1A1 assessed as accumulation of cells at G2/M phase at 25 nM incubated for 48 hrs by DAPI staining based flow cytometric analysis (reference value: 16+/-2 %); format: functional
MCF7 [33] = experiment: Induction of cell cycle arrest in human MCF7 cells expressing CYP1A1 assessed as accumulation of cells at S phase at 25 nM incubated for 48 hrs by DAPI staining based flow cytometric analysis (reference value: 11+/-1 %); format: functional
MCF7 [34] = experiment: Induction of cell cycle arrest in human MCF7 cells expressing CYP1A1 assessed as accumulation of cells at G0/G1 phase at 25 nM incubated for 48 hrs by DAPI staining based flow cytometric analysis (reference value: 74+/-2 %); format: functional
Tubulin (Homo sapiens) [35] = biological target: T2, Tubulin (Homo sapiens); experiment: Disruption of microtubules in human MCF7 cells expressing CYP1A1 assessed as cytoskeleton disruption at 15 nM measured after 48 hrs by DAPI staining based fluorescence microscopic analysis; format: cell-based

Compound | pIC50 (MCF7 [1]) | pIC50 (HT-29) | pIC50 (M21) | Ratio IC50 [2] | Ratio IC50 [3] | pIC50 (MDA-MB-231) | pIC50 (MDA-MB-468) | pIC50 (T47D) | pIC50 (SK-BR-3) | pIC50 (MCF7 [16]) | Ratio IC50 [17] | Ratio IC50 [18] | Ratio IC50 [19] | Ratio IC50 [20] | Activity (HT-1080 [25]) | Activity (HT-1080 [26]) | Activity (HT-1080 [27]) | Activity [28] | Activity [29] | Activity [30] | other results
CCCCCN1CCN(c2ccc(S(=O)(=O)Oc3cc(OC)c(OC)c(OC)c3)cc2)C1=O | 6.70 | < 4.90 | < 4.90 | >63 | >63 | 5.07 | 7.68 | 6.00 | 8.49 | 7.42 | 410 | 8.6 | 2700 | 230 | 82% | 93% | 62% | Non-Toxic | Non-Toxic | Non-Toxic | half-life [4]: 57 min; half-life [5]: 18.9 min; half-life [6]: 125 min; microsomal CLint [7]: 24.3 µL/min/mg; microsomal CLint [8]: 74 µL/min/mg; microsomal CLint [9]: 11.1 µL/min/mg; pKi (Cytochrome P450 1A1 [10]): 5.85; pIC50 (HT-1080 [11]): 7.52; pIC50 (HT-1080 [12]): 5.23; pIC50 (HT-1080 [13]): 5.35; Ratio IC50 [14]: 197; Ratio IC50 [15]: 148; Activity (MCF7 [21]): 42%; Activity (MCF7 [22]): 14%; Activity (MCF7 [23]): 44%; Activity (Tubulin (Homo sapiens) [24]): Active; Drug metabolism (Cytochrome P450 1A1 [31]): Metabolite_Detected
COc1cc(OS(=O)(=O)c2ccc(N3CCNC3=O)cc2)cc(OC)c1OC | 7.60 | 7.40 | 7.40 | 1.6 | 1.6 | 8.16 | 8.28 | 7.89 | 8.52 | 8.47 | 1.3 | 0.53 | 2.3 | 2 | 49% | 79% | 68% | Non-Toxic | Non-Toxic | Non-Toxic | Activity (MCF7 [32]): 63%; Activity (MCF7 [33]): 9%; Activity (MCF7 [34]): 28%; Activity (Tubulin (Homo sapiens) [35]): Active
